# In publication PMC4619459, “Metabolism of β-valine via a CoA-dependent ammonia lyase pathway” (Applied Microbiology and Biotechnology, 2015):
# Experiments:
# Format in all cases: biochemical
# [1] = molecular target: T1, BvaB2-His (Pseudomonas sp. SBV1, UniProt A0A0C4USU5); experiment: UPLC-MS (m/z […]) and HPLC; settings: substrate made in situ by BvaA-His, not purified; 50 mM HEPES, 150 mM NaCl, 5 mM MgCl2, pH 8
# T1 sequence (A0A0C4USU5 1-266): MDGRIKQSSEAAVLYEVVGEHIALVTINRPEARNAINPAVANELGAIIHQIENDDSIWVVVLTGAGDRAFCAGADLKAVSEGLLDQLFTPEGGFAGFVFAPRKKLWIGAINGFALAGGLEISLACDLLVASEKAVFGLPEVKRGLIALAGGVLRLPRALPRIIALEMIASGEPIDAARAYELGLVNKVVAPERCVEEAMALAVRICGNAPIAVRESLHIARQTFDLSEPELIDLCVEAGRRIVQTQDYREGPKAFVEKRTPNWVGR
# [2] = molecular target: T2, BvaB1-His (Pseudomonas sp. SBV1, UniProt A0A0C4UTI5); experiment: UPLC-MS (m/z […]) and HPLC; settings: substrate made in situ by BvaA-His, not purified; 50 mM HEPES, 150 mM NaCl, 5 mM MgCl2, pH 8
# T2 sequence (A0A0C4UTI5 1-253): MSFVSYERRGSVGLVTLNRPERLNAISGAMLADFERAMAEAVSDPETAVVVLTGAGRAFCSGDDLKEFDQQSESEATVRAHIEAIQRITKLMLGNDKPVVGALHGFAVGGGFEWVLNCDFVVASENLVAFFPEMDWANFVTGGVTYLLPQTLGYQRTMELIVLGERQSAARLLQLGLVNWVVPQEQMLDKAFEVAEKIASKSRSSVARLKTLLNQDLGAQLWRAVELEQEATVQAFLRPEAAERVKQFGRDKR
# [3] = molecular target: T3, BvaA-His (Pseudomonas sp. SBV1, UniProt A0A0C4UT64); experiment: HPLC of AMP formation; settings: 2.5 mM β-valine, 2.5 mM CoA, 5 mM MgCl2, 50 mM HEPES, 150 mM NaCl, pH 8, 30 °C
# [4] = molecular target: T3, BvaA-His; experiment: UPLC-MS of CoA adduct; HPLC of AMP formation; settings: 5 mM ATP, 2.5 mM CoA, 5 mM MgCl2, 50 mM HEPES, 150 mM NaCl, pH 8, 30 °C
# [5] = molecular target: T1, BvaB2-His; experiment: HPLC of substrate depletion; UPLC-MS; settings: substrate made in situ by BvaA-His, not purified; 50 mM HEPES, 150 mM NaCl, 5 mM MgCl2, pH 8
# [6] = molecular target: T2, BvaB1-His; experiment: HPLC of substrate depletion; UPLC-MS; settings: substrate made in situ by BvaA-His, not purified; 50 mM HEPES, 150 mM NaCl, 5 mM MgCl2, pH 8
# T3 sequence (A0A0C4UT64 entry or part of it): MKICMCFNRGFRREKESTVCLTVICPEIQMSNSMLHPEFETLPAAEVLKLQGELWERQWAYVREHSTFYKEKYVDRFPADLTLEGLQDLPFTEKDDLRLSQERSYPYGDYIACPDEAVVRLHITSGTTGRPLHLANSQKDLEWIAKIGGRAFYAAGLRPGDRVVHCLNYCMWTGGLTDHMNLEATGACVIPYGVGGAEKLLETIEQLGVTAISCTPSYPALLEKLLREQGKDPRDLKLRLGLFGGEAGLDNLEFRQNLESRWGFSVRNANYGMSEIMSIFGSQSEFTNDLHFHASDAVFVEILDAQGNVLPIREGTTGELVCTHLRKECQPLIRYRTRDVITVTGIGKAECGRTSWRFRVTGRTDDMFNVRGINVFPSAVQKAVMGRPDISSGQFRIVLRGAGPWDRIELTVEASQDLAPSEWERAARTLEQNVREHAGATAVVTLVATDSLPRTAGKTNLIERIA
smiles,measurement,setting,value
CC(C)=CC(=O)SCCNC(=O)CCNC(=O)[C@H](O)C(C)(C)COP(=O)(O)OP(=O)(O)OC[C@H]1O[C@@H](n2cnc3c(N)ncnc32)[C@H](O)[C@@H]1OP(=O)(O)O [3-methyl-crotonyl-CoA],UPLC-MS (m/z 849) and HPLC,[1],This parent ion was observed in a mixture containing either BvaB1-His or BvaB2-His
same,UPLC-MS (m/z 849) and HPLC,[2],This parent ion was observed in a mixture containing either BvaB1-His or BvaB2-His
Nc1ncnc2c1ncn2[C@@H]1O[C@H](COP(=O)(O)OP(=O)(O)OP(=O)(O)O)[C@@H](O)[C@H]1O [ATP],HPLC of AMP formation,[3],able to convert β-valine to β-valinyl-CoA in an ATP- and CoA-dependent manner
CC(C)(N)CC(=O)O [β-valine],UPLC-MS of CoA adduct; HPLC of AMP formation,[4],both the β-valinyl-CoA and the AMP levels increased in time
CC(C)(N)CC(=O)SCCNC(=O)CCNC(=O)[C@H](O)C(C)(C)COP(=O)(O)OP(=O)(O)OC[C@H]1O[C@@H](n2cnc3c(N)ncnc32)[C@H](O)[C@@H]1OP(=O)(O)O [β-valinyl-CoA],HPLC of substrate depletion; UPLC-MS,[5],both expected β-valinyl-CoA ammonia lyases are able to convert β-valinyl-CoA to 3-methyl-crotonyl-CoA
same,HPLC of substrate depletion; UPLC-MS,[6],both expected β-valinyl-CoA ammonia lyases are able to convert β-valinyl-CoA to 3-methyl-crotonyl-CoA
